Source: US8574607B2, “Spiroheterocyclic thiofuran dione derivatives” (Syngenta Crop Protection, Inc., priority 2009, dated 2013)
Read-outs that look alike come from different tables or passages of the source.

How the values were obtained:
[1] = test system: Tetranychus urticae (Two-Spotted Spider Mite); conditions: foliar, 192 h, read-out: activity (egg, larval and adult mortality)
[2] = test system: Myzus persicae (Green Peach Aphid); conditions: 144 h, read-out: activity (mortality)
[3] = test system: Myzus persicae (Green Peach Aphid); experiment: Example B1: Myzus persicae, mixed population, feeding/residual contact activity, preventive (sprayed sunflower leaf discs); conditions: foliar, 144 h, read-out: activity (mortality)
[4] = test system: Myzus persicae (Green Peach Aphid); experiment: Example B11: Myzus persicae, mixed population, feeding/residual contact activity (sprayed pepper plants); assay type: in vivo; conditions: 144 h, spray chamber, 6 days after treatment, read-out: activity against Myzus persicae (mortality)
[5] = test system: Myzus persicae (Green Peach Aphid); experiment: Example B10: drench activity against Myzus persicae (pea seedlings in field soil); conditions: 168 h, read-out: drench activity (mortality)
[6] = test system: Nilaparvata lugens (Brown Rice Planthopper); experiment: Example B6: Nilaparvata lugens, larvicide, feeding/contact (rice seedlings); conditions: in Oryza sativa, read-out: activity (mortality, growth regulation, effects on F1 generation)
[7] = test system: Aphis craccivora (Cowpea Aphid); experiment: Example B8: Aphis craccivora, mixed population, systemic/feeding (roots of pea seedlings in test solution); assay type: in vivo; conditions: 144 h, read-out: activity (mortality)
Source text: (§1) Activity Against Aphis craccivora (Cowpea Aphid)
(Mixed Population, Systemic/Feeding)
6 days later, samples are checked for mortality.

[8] = test system: Thrips tabaci (Onion Thrips); conditions: foliar, 144 h, read-out: activity (mortality)
[9] = test system: Aphis craccivora (Cowpea Aphid); experiment: whole plant or invertebrate; assay type: in vivo; conditions: 144 h, read-out: activity (mortality)
Source text: as §1
(Mixed Population, Contact/Feeding)
6 days after treatment, samples are checked for mortality.

[10] = test system: Aphis craccivora (Cowpea Aphid); experiment: whole plant or invertebrate; conditions: in Phaseolus vulgaris, 120 h, read-out: translaminar activity (mortality)

Structure (SMILES)	mortality at 400 ppm [1] [%]	mortality at 400 ppm [2] [%]	mortality at 400 ppm [3] [%]	also measured
CCc1cc(C)cc(C)c1C1=C(O)C2(CCN(OC)CC2)OC1=O [P2.51]	> 80	> 80	> 80	–
CON1CCC2(CC1)OC(=O)C(c1c(C)cc(Br)cc1Cl)=C2O [P2.47]	–	–	–	mortality at 200 ppm [4]: ≥ 80%
CCOC(=O)OC1=C(c2c(C)cc(Cl)cc2C)C(=O)OC12CCN(OC)CC2 [P1.11]	> 80	> 80	> 80	mortality at 200 ppm [4]: ≥ 80%; mortality at 25 ppm [5]: > 80%; mortality at 400 ppm [6]: > 80%; mortality at 25 ppm ([7]; 25 ppm, roots in test solution, 6 days): > 80%
CCOC(=O)OC1=C(c2ccc(C)cc2C)C(=O)OC12CCN(OC)CC2 [P1.13]	–	> 80	> 80	mortality at 400 ppm [8]: > 80%; mortality at 200 ppm [4]: ≥ 80%
CON1CCC2(CC1)OC(=O)C(c1c(C)cc(C)cc1C)=C2OC(=O)C(C)(C)C [P1.6]	–	> 80	> 80	mortality at 200 ppm [4]: ≥ 80%
C=Cc1cc(C)c(C2=C(O)C3(CCN(OC)CC3)OC2=O)c(C)c1 [P2.7]	–	> 80	> 80	–
CON1CCC2(CC1)OC(=O)C(c1cc(C)ccc1C)=C2OC(=O)C(C)(C)C [P1.2]	–	> 80	> 80	–
CCOC(=O)OC1=C(c2c(C)cc(C)cc2C)C(=O)OC12CCN(OCC)CC2 [P1.17]	> 80	> 80	> 80	mortality at 400 ppm [8]: > 80%
CCOC(=O)OC1=C(c2cc(C)ccc2OC)C(=O)OC12CCN(OC)CC2 [P1.16]	–	–	–	melting point: 81 to 83 °C
CCOC(=O)OC1=C(c2ccc(Cl)cc2Cl)C(=O)OC12CCN(OC)CC2 [P1.14]	–	> 80	> 80	–
CON1CCC2(CC1)OC(=O)C(c1cc(C)c(C)cc1C)=C2OC(=O)C(C)(C)C [P1.4]	–	> 80	> 80	mortality at 200 ppm [4]: ≥ 80%
CON1CCC2(CC1)OC(=O)C(c1ccc(Cl)cc1)=C2O [P2.35]	> 80	–	–	–
CCOC(=O)OC1=C(c2c(C)cc(Br)cc2C)C(=O)OC12CCN(OC)CC2 [P1.8]	–	> 80	–	–
CON1CCC2(CC1)OC(=O)C(c1cc(C)ccc1C)=C2O [P2.1, 3-(2,5-dimethyl-phenyl)-4-hydroxy-8-methoxy-1-oxa-8-aza-spiro[4.5]dec-3-en-2-one]	–	> 80	> 80	mortality at 200 ppm [4]: ≥ 80%
CON1CCC2(CC1)OC(=O)C(c1cc(C)c(C)cc1C)=C2O [P2.2, 4-Hydroxy-8-methoxy-3-(2,4,5-trimethyl-phenyl)-1-oxa-8-aza-spiro[4.5]dec-3-en-2-one]	–	> 80	> 80	mortality at 400 ppm [8]: > 80%; mortality at 200 ppm [4]: ≥ 80%
CCOC(=O)OC1=C(c2c(C)cc(C)c(Cl)c2C)C(=O)OC12CCN(OC)CC2 [P1.18]	–	> 80	–	–
COc1ccccc1C1=C(O)C2(CCN(OC)CC2)OC1=O [P2.34]	–	–	> 80	–
CCOC(=O)OC1=C(c2cc(C)ccc2C)C(=O)OC12CCN(OC)CC2 [P1.1, Carbonic acid 3-(2,5-dimethyl-phenyl)-8-methoxy-2-oxo-1-oxa-8-aza-spiro[4.5]dec-3-en-4-yl ester ethyl ester]	–	> 80	–	mortality at 200 ppm [4]: ≥ 80%
CON1CCC2(CC1)OC(=O)C(c1cc(C)c(Cl)cc1C)=C2O [P2.48]	–	–	–	mortality at 200 ppm [4]: ≥ 80%
CON1CCC2(CC1)OC(=O)C(c1ccc(C)cc1C)=C2O [P2.8]	–	> 80	> 80	mortality at 200 ppm [4]: ≥ 80%
CON1CCC2(CC1)SC(=O)C(c1c(C)cc(C)cc1C)=C2O [P2.4, 4-hydroxy-8-methoxy-3-(2,4,6-trimethyl-phenyl)-1-thia-8-aza-spiro[4.5]dec-3-en-2-one]	> 80	–	> 80	–
C=Cc1cc(C)c(C2=C(OC(=O)OCC)C3(CCN(OC)CC3)OC2=O)c(C)c1 [P1.12]	–	> 80	–	–
CON1CCC2(CC1)OC(=O)C(c1c(C)cc(C)cc1C1CC1)=C2O [P2.49]	> 80	> 80	> 80	–
CCOC(=O)OC1=C(c2c(C)cc(C)cc2C)C(=O)OC12CCN(OCCOC)CC2 [P1.19]	> 80	> 80	–	–

Structure (SMILES)	mortality at 400 ppm [1] [%]	mortality at 400 ppm [2] [%]	mortality at 400 ppm [3] [%]	also measured
COCCON1CCC2(CC1)OC(=O)C(c1c(C)cc(C)cc1C)=C2O [P2.14]	> 80	–	–	mortality at 400 ppm [8]: > 80%
C=Cc1cc(C)cc(C)c1C1=C(O)C2(CCN(OC)CC2)OC1=O [P2.50]	–	> 80	> 80	–
CON1CCC2(CC1)OC(=O)C(c1c(C)cc(C)cc1C)=C2OC(=O)CC(C)(C)C [P1.9]	–	> 80	> 80	–
CON1CCC2(CC1)OC(=O)C(c1ccc(Cl)cc1Cl)=C2O [P2.9]	> 80	–	–	–
CON1CCC2(CC1)OC(=O)C(c1c(Br)cc(C)cc1Br)=C2O [P2.40]	> 80	–	–	–
CCOC(=O)OC1=C(c2c(F)ccc(Br)c2Cl)C(=O)OC12CCN(OC)CC2 [P1.29]	> 80	–	–	–
COc1c(Cl)cccc1C1=C(O)C2(CCN(OC)CC2)OC1=O [P2.37]	–	–	> 80	–
CON1CCC2(CC1)OC(=O)C(c1c(C)cc(Br)cc1C)=C2O [P2.5]	–	> 80	> 80	–
CCOC(=O)OC1=C(c2cc(C)c(C)cc2C)C(=O)OC12CCN(OC)CC2 [P1.3]	–	> 80	> 80	mortality at 200 ppm [4]: ≥ 80%
CON1CCC2(CC1)OC(=O)C(c1c(C)cc(C)cc1C)=C2O [P2.3, 4-hydroxy-8-methoxy-3-(2,4,6-trimethyl-phenyl)-1-oxa-8-aza-spiro[4.5]dec-3-en-2-one]	> 80	> 80	> 80	mortality at 400 ppm [9]: > 80%; mortality at 400 ppm [10]: > 80%; mortality at 25 ppm [5]: > 80%; mortality at 400 ppm [6]: > 80%; mortality at 25 ppm [7]: > 80%
CCOC(=O)OC1=C(c2c(C)cc(C)c(Br)c2C)C(=O)OC12CCN(OC)CC2 [P1.39]	–	–	–	melting point: 52 to 54 °C
CON1CCC2(CC1)OC(=O)C(c1c(C)cc(C)c(Cl)c1C)=C2O [P2.13]	> 80	> 80	–	–
CCC(C)(C)C(=O)OC1=C(c2c(C)cc(C)cc2C)C(=O)OC12CCN(OC)CC2 [P1.10]	> 80	> 80	> 80	–
CCOC(=O)OC1=C(c2c(Cl)cc(Br)cc2Cl)C(=O)OC12CCN(OC)CC2 [P1.30]	–	–	–	melting point: 122 to 125 °C
CCOC(=O)OC1=C(c2c(C)cc(C)cc2C)C(=O)OC12CCN(OC)CC2 [P1.5, Carbonic acid ethyl ester 8-methoxy-2-oxo-3-(2,4,6-trimethylphenyl)-1-oxa-8-aza-spiro[4.5]dec-3-en-4-yl ester]	–	> 80	> 80	–
CCOC(=O)OC1=C(c2c(C)cc(C)cc2C)C(=O)SC12CCN(OC)CC2 [P1.7, Carbonic acid ethyl ester 8-methoxy-2-oxo-3-(2,4,6-trimethylphenyl)-1-thia-8-aza-spiro[4.5]dec-3-en-4-yl ester]	–	–	> 80	–
CCOC(=O)OC1=C(c2cc(C)c(Cl)cc2C)C(=O)OC12CCN(OC)CC2 [P1.33]	–	> 80	–	–
CCOC(=O)OC1=C(c2c(C)ccc(Cl)c2C)C(=O)OC12CCN(OC)CC2 [P1.15]	> 80	–	–	–
CCOC(=O)OC1=C(c2c(C)cccc2C)C(=O)OC12CCN(OC)CC2 [P1.40]	–	–	–	melting point: 93 to 94 °C
CON1CCC2(CC1)OC(=O)C(c1ccc(F)cc1)=C2O [P2.20]	> 80	–	–	–
CCOC(=O)OC1=C(c2c(C)cc(C)cc2C2CC2)C(=O)OC12CCN(OC)CC2 [P1.34]	> 80	> 80	–	–
CON1CCC2(CC1)OC(=O)C(c1c(C)cc(Cl)cc1C)=C2O [P2.6]	> 80	–	> 80	–
CCON1CCC2(CC1)OC(=O)C(c1c(C)cc(C)cc1C)=C2O [P2.12]	> 80	> 80	> 80	mortality at 400 ppm [8]: > 80%
